From patent US11203600B2 (Denali Therapeutics Inc., priority 2017, dated 2021)

Molecular target: GST-hRIPK1 (8-327) (Homo sapiens (Human), UniProt Q13546)
Assay: Fluorescent Polarization Binding (FP Binding) assay, RIPK1
Details: 10 nM GST-hRIPK1 (8-327), 5 nM fluorescent-labeled ligand, RT, 30 min, mean of at least two independent experiments
Method: Fluorescent Polarization Binding (FP Binding) assay (Berger S. B. et al. (2015) Cell Death Discovery, 1: 15009; Maki J. L. et al. (2012) Anal Biochem., 427(2): 164-174) was performed in polystyrene low volume 384-well black plate, at RT in a final volume of 10.1 μl/well using 10 nM of GST-hRIPK1 (8-327) enzyme and 5 nM of fluorescent-labeled ligand (14-(2-{[3-({2-{[4-(cyanomethyl)phenyl]amino]-6-[(5-cyclopropyl-1H-pyrazol-3-yl)amino]-4-pyrimidinyl}amino) propyl}amino}-2-oxoethyl)-16,16,18,18-tetramethyl-6,7,7a,8a,9,10,16,18-octahydrobenzo [2″,3″]indolizino[8″,7″:5′,6′]pyrano [3′,2′:3,4]pyrido[1,2-a]indo1-5-ium-2-sulfonate.
Test compounds were serially diluted in DMSO at 100 fold final concentrations in the assay (1% DMSO final). In each well of a 384-well Plate were dispensed 0.1 μL of compound solution (or DMSO for controls) followed by 5 μL of GST-hRIPK1 (8-327) at twice the final concentrations in assay buffer (50 mM HEPES pH 7.5, 10 mM NaCl, 50 mM MgCl2, 0.02% CHAPS, 0.5 mM DTT and 0.01% Pluronic F127). For negative control the enzyme addition was replaced by assay buffer only.
After addition of 5 μL of fluorescentlabeled ligand at twice the final concentrations in assay buffer, the plate was incubated at RT for […]. At the end, the binding was measured as FP value with the Envision (PerkinElmer) plate reader using filter for an excitation λ=531 nm FP and an emission λ=595 nm FP (S & P-pol). GST-hRIPK1 (8-327) enzyme was produced via Baculovirus expression.
Test compound inhibition was expressed as percent inhibition of internal assay controls. For concentration response curves, normalized data is fit and IC50 determined using XL-fit (IDBS) for Excel. The IC50 values were averaged to determine a mean value, for a minimum of two independent experiments. Results are shown in Table 2 (RIPK1 IC50) values: +++=0.1 nM<IC50<100 nM; ++=100 nM<IC50<1 μM; +=1 μM<IC50).

Sequence of GST-hRIPK1 (8-327) (Q13546 8-327): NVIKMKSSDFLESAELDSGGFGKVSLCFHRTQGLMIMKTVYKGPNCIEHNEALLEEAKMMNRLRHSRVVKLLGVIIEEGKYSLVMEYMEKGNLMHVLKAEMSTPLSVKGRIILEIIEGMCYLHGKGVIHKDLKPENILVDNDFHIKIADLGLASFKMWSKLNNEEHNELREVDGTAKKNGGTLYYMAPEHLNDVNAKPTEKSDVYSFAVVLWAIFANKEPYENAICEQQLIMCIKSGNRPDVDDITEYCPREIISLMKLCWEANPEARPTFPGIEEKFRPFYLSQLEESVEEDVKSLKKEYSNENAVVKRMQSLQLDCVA

**Q.** With `CNc1nc(N2CCC(F)(C(=O)N3CCOc4c(C#N)cncc4C3)CC2)ncc1F` [Example 123, 4-[4-fluoro-1-[5-fluoro-4-(methylamino)pyrimidin-2-yl]piperidine-4-carbonyl]-3,5-dihydro-2H-pyrido[3,4-f][1,4]oxazepine-9-carbonitrile] as the molecule, how does the IC50 read?
**A.** 100 to 1000 nM

**Q.** For `N#Cc1cncc2c1OCCN(C(=O)C1(F)CCN(c3ccc(F)cn3)CC1)C2` [Example 188, 4-[4-fluoro-1-(5-fluoro-2-pyridyl)piperidine-4-carbonyl]-3,5-dihydro-2H-pyrido[3,4-f][1,4]oxazepine-9-carbonitrile], which IC50 is on record?
**A.** 0.1 to 100 nM

**Q.** With `CC1(C(=O)N2CCOc3c(C#N)cncc3C2)CC1(F)F` (centres unmarked) [Example 50, 4-(2,2-difluoro-1-methyl-cyclopropanecarbonyl)-3,5-dihydro-2H-pyrido[3,4-f][1,4]oxazepine-9-carbonitrile] as the molecule, how does the IC50 read?
**A.** 100 to 1000 nM

**Q.** For `CC1(C(=O)N2CCOc3ccccc3C2)CCN(c2ncc(F)cn2)CC1` [Example 9, 3,5-dihydro-2H-1,4-benzoxazepin-4-yl-[1-(5-fluoropyrimidin-2-yl)-4-methyl-4-piperidyl]methanone], which IC50 is on record?
**A.** 0.1 to 100 nM

**Q.** With `Cn1cnc2cnc(N3CCC(F)(C(=O)N4CCOc5c(C#N)cncc5C4)CC3)nc21` [Example 169, 4-[4-fluoro-1-(9-methylpurin-2-yl)piperidine-4-carbonyl]-3,5-dihydro-2H-pyrido[3,4-f][1,4]oxazepine-9-carbonitrile] as the molecule, how does the IC50 read?
**A.** 100 to 1000 nM

**Q.** `CSC(C)(C)C(=O)N1CCOc2c(C#N)cncc2C1` [Example 148, 4-(2-methyl-2-methylsulfanyl-propanoyl)-3,5-dihydro-2H-pyrido[3,4-f][1,4]oxazepine-9-carbonitrile] was tested. Which IC50 did it give?
**A.** 0.1 to 100 nM

**Q.** Which IC50 does the source give for `N#Cc1cncc2c1OCCN(C(=O)C1(F)CCN(c3nccc(C(F)(F)F)n3)CC1)C2` [Example 167, 4-[4-fluoro-1-[4-(trifluoromethyl)pyrimidin-2-yl]piperidine-4-carbonyl]-3,5-dihydro-2H-pyrido[3,4-f][1,4]oxazepine-9-carbonitrile] here?
**A.** 100 to 1000 nM

**Q.** With `CC(C)(C(=O)N1CCOc2cccc(F)c2C1)C(F)F` [Example 20, 3,3-difluoro-1-(6-fluoro-2,3-dihydrobenzo[f][1,4]oxazepin-4(5H)-yl)-2,2-dimethylpropan-1-one] as the molecule, how does the IC50 read?
**A.** 0.1 to 100 nM

**Q.** For `CC(C)(C(=O)N1CCOc2c(F)cncc2C1)C(F)(F)F` [Example 79, 3,3,3-trifluoro-1-(9-fluoro-3,5-dihydro-2H-pyrido[3,4-f][1,4]oxazepin-4-yl)-2,2-dimethyl-propan-1-one], which IC50 is on record?
**A.** 100 to 1000 nM

**Q.** Which IC50 does the source give for `N#Cc1cncc2c1OCCN(C(=O)C1(CF)CCN(c3ncc(F)cn3)CC1)C2` [Example 137, 4-(4-(fluoromethyl)-1-(5-fluoropyrimidin-2-yl)piperidine-4-carbonyl)-2,3,4,5-tetrahydropyrido[3,4-f][1,4]oxazepine-9-carbonitrile] here?
**A.** 100 to 1000 nM

Same assay, conditions: GST-hRIPK1 (8-327), mean of at least two independent experiments

**Q.** With `CC(F)C(C)(C)C(=O)N1CCOc2c(C#N)cncc2C1` (single isomer, unassigned) [Example 270, 4-(3-fluoro-2,2-dimethyl-butanoyl)-3,5-dihydro-2H-pyrido[3,4-f][1,4]oxazepine-9-carbonitrile] as the molecule, how does the IC50 read?
**A.** 0.1 to 100 nM

**Q.** Which IC50 does the source give for `N#Cc1cncc2c1OCCN(C(=O)C1CCN(c3nc(F)c(F)cc3F)CC1)C2` [Example 288, 4-[1-(3,5,6-trifluoro-2-pyridyl)piperidine-4-carbonyl]-3,5-dihydro-2H-pyrido[3,4-f][1,4]oxazepine-9-carbonitrile] here?
**A.** 0.1 to 100 nM

**Q.** For `O=C(C1CCN(c2nccc3ncnn23)CC1(F)F)N1CCOc2c(F)cncc2C1` (centres unmarked) [Example 251, [3,3-difluoro-1-([1,2,4]triazolo[1,5-c]pyrimidin-5-yl)-4-piperidyl]-(9-fluoro-3,5-dihydro-2H-pyrido[3,4-f][1,4]oxazepin-4-yl)methanone], which IC50 is on record?
**A.** 100 to 1000 nM

**Q.** `O=C(C1CCN(c2ncc(F)cn2)CC1)N1CCCc2ccccc2C1` [Example 203, [1-(5-fluoropyrimidin-2-yl)-4-piperidyl]-(1,3,4,5-tetrahydro-2-benzazepin-2-yl)methanone] was tested. Which IC50 did it give?
**A.** 100 to 1000 nM
